System: Low Density Lipoprotein
Assay: Inhibition of Copper Ion Mediated Oxidation of Low Density Lipoprotein
Format: biochemical
Details: Cu^+2 mediated oxidation of rabbit or monkey LDL
Experimental: 5. Inhibition of Copper Ion Mediated Oxidation of Low Density Lipoprotein
In this in vitro assay, the inhibition of Cu^+2 mediated oxidation of rabbit or monkey LDL by an invention compound is determined spectrophotometricallly. Oxidation of LDL results in the formation of LDL-diene which absorbs light at 532 nm. Inhibition of oxidation of LDL leads to a decrease in absorbance at 532 nm.
Rabbit or monkey LDL is prepared according to the procedures of Havel, Eder and Gragdon, "The Distribution and Chemical Composition of Ultracentrifugally Separated Lipoproteins in Human Serum,: J, Clin. Invest. 34, 1345-1353 (1955) and Parhtasarathy, Wieland and Steriberg, "A Role for Endothelial Cell Lipoxygenase in the Oxidative Modification of Low Density Lipoprotein," Proc, Natl. Acad. Sci. USA 86, 1046-1050 (1989). Test compound solutions are prepared by dissolving the invention compounds in ethanol at concentrations up to 248 μM. The medium used is Dulbecco's phosphate buffered saline containing 0.5 mg/ml bovine serum albumin. For standards, 0 to 10 μl of an aqueous solution of 1,1,3,3-tetraethoxypropane (1 μmol/ml H2 O) in 4.1 ml of medium is used.
Test compound solution (100 μl) is added to 4 ml of medium in incubation tubes. To each tube is added 10 μl of LDL solution and 25 μl of aqueous copper sulfate solution (1.32 mg/ml H2 O ). The tubes are incubated at 37° C. for 90 minutes and the oxidation reaction quenched by addition of 1 ml of thiobarbituric acid solution (0.67% in 50% acetic acid). The tubes are heated at 90° C. for 1 hour, then chilled in an ice bath and the chromophore extracted into 2 ml of n-butanol. Absorbence is read at 532 nm and the results are reported as nmols of malondialdehyde equivalents.
Significant differences (p<0.05) are determined by the Dunnett T-test or by the Student-Newman-Keuls Test for significant differences between means. The assay is conducted using several concentrations I! of the inhibitor test compounds. The LDL solution concentrations at different experiments were either 1.5 mg/ml, 2.5 mg/ml or 10.3 mg/ml. The IC50 is determined by non-linear regression, plotting log I! vs. % inhibition. (Reference: K. Yagi, Biochemical Medicine 15, 212-216 (1976)).

With `Cc1oc(-c2ccccc2)nc1COc1ccc(CN(O)C(N)=O)cc1` [Example 1, 1-Hydroxy-1-4-(5-methyl-2-phenyl-oxazol-4-ylmethoxy)-benzyl!-urea] the IC50 was 1100 nM.

Reference: US5504097A, “N-hydroxyureas as 5-lipoxygenase inhibitors and inhibitors of oxidative modification of low density lipoprotein” (American Home Products Corporation, priority 1995, dated 1996)
